The record followed here is ChEMBL document CHEMBL4219047, “Optimization of peptide-based polyagonists for treatment of diabetes and obesity” (Bioorg Med Chem, 2018).

Where a SMILES comes first, the peptide text is derived from it. Bridges are numbered along the chain shown (N, C = ends).

Type in all cases: functional, cell-based
For test [1], the target named is T1, Glucagon-like peptide 1 receptor (Homo sapiens, UniProt P43220). Nature of the test: Agonist activity at human GLP1 receptor expressed in HEK293 cells assessed as increase in cAMP level after 5 hrs by CRE driven luciferase reporter gene assay. (cAMP levels reflect the balance of adenylyl cyclase and phosphodiesterase activity.)
T1 sequence (P43220 whole entry): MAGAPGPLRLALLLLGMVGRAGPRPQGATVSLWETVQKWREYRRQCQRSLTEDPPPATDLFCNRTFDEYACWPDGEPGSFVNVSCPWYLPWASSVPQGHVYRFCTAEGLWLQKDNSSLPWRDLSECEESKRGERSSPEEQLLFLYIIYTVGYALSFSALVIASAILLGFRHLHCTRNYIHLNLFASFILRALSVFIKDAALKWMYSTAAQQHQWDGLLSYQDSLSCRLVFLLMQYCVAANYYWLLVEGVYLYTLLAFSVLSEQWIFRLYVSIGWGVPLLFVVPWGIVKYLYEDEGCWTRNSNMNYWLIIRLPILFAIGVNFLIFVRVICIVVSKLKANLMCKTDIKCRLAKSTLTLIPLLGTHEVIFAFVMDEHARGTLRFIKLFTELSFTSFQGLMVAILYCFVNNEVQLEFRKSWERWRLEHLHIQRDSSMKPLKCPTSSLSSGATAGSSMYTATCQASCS
The target of test [2] is T2, Glucagon receptor (Homo sapiens, UniProt P47871). Nature of the test: Agonist activity at human GCG receptor expressed in HEK293 cells assessed as increase in cAMP level after 5 hrs by CRE driven luciferase reporter gene assay.
T2 sequence (P47871 whole entry): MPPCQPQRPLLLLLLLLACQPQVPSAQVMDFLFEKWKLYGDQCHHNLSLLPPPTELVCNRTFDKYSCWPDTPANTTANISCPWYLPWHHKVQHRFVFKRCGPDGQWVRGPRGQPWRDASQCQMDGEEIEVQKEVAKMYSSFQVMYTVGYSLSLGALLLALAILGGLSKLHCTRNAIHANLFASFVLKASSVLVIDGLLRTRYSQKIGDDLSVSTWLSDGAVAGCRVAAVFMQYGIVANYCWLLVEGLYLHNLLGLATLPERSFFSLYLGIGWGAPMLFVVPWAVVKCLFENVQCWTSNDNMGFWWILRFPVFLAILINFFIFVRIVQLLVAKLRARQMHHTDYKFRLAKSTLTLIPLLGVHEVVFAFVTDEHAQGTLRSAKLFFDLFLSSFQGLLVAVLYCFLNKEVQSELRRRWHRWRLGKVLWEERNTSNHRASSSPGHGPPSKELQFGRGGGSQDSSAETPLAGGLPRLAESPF
In test [3] the target is T3, Gastric inhibitory polypeptide receptor (Homo sapiens, UniProt P48546).
T3 sequence (P48546 whole entry): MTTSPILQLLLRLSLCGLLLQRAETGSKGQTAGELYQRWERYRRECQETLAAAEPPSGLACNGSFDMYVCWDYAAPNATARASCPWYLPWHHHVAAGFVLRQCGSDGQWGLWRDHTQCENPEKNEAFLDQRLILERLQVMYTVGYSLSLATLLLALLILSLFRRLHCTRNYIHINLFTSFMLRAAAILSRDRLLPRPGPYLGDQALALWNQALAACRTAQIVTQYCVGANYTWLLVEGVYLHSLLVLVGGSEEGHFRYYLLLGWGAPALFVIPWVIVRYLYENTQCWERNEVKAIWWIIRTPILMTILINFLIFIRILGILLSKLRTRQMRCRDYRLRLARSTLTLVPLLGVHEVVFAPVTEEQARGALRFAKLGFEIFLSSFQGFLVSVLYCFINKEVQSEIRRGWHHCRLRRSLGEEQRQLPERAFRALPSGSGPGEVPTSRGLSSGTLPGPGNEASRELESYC
Nature of the test: Agonist activity at human GIP receptor expressed in HEK293 cells assessed as increase in cAMP level after 5 hrs by CRE driven luciferase reporter gene assay.

For test [4], the target named is T1, Glucagon-like peptide 1 receptor. Nature of the test: Agonist activity at human GLP1 receptor expressed in HEK293 cells assessed as increase in cAMP level after 5 hrs by CRE driven luciferase reporter gene assay relative to GLP1. More on the design: concentration or dose not given beside the values.
The target in test [5] is T2, Glucagon receptor. Description: Agonist activity at human GCG receptor expressed in HEK293 cells assessed as increase in cAMP level after 5 hrs by CRE driven luciferase reporter gene assay relative to glucagon.
The target of test [6] is T4, Gastric inhibitory polypeptide receptor (Homo sapiens) (UniProt P48546).
T4 sequence (whole entry): T3 sequence (P48546 whole entry)
Nature of the test: Agonist activity at human GIP receptor expressed in HEK293 cells assessed as increase in cAMP level after 5 hrs by CRE driven luciferase reporter gene assay relative to GIP. On the set-up: concentration or dose not given beside the values.

A word on the EC50: it is the concentration giving half of the maximal effect.

Turning to `CCCCCCCCCCCCCCCC(=O)N[C@@H](CCC(=O)NCCCC[C@H](NC(=O)[C@H](CC(=O)O)NC(=O)[C@H](CO)NC(=O)[C@@H](NC(=O)[C@H](Cc1ccccc1)NC(=O)[C@@H](NC(=O)CNC(=O)[C@H](CCC(N)=O)NC(=O)CNC(=O)[C@@H](N)Cc1cnc[nH]1)[C@@H](C)O)[C@@H](C)O)C(=O)N[C@@H](CO)C(=O)N[C@@H](CCCCN)C(=O)N[C@@H](Cc1ccc(O)cc1)C(=O)N[C@@H](CC(C)C)C(=O)N[C@@H](CC(=O)O)C(=O)N[C@@H](CCC(=O)O)C(=O)N[C@@H](CCCNC(=N)N)C(=O)N[C@@H](C)C(=O)N[C@@H](C)C(=O)N[C@@H](CCC(N)=O)C(=O)N[C@@H](CC(=O)O)C(=O)N[C@@H](Cc1ccccc1)C(=O)N[C@H](C(=O)N[C@@H](CCC(N)=O)C(=O)N[C@@H](Cc1c[nH]c2ccccc12)C(=O)N[C@@H](CC(C)C)C(=O)N[C@@H](CC(C)C)C(=O)N[C@@H](CC(=O)O)C(=O)N[C@H](C(N)=O)[C@@H](C)O)C(C)C)C(=O)O`, the results for the EC50 (in test [1]; on Glucagon receptor [2]; in test [3]) were 0.093 nM, 0.005 nM and 1.1 nM, respectively. In addition, the Activity was 30% in test [4], 640% on Glucagon receptor [5] and 2% in test [6].

Consider `CC[C@H](C)[C@H](NC(=O)[C@H](Cc1ccccc1)NC(=O)[C@H](CCC(=O)O)NC(=O)[C@@H]1CCCCNC(=O)CC[C@H](NC(=O)[C@H](CC(=O)O)NC(=O)[C@H](CC(C)C)NC(=O)[C@H](Cc2ccc(O)cc2)NC(=O)[C@H](CCCCN)NC(=O)[C@H](CO)NC(=O)[C@H](Cc2ccc(O)cc2)NC(=O)[C@H](CC(=O)O)NC(=O)[C@H](CO)NC(=O)[C@@H](NC(=O)[C@H](Cc2ccccc2)NC(=O)[C@@H](NC(=O)CNC(=O)[C@H](CCC(N)=O)NC(=O)[C@H](CO)NC(=O)[C@@H](N)Cc2cnc[nH]2)[C@@H](C)O)[C@@H](C)O)C(=O)N[C@@H](CCC(N)=O)C(=O)N[C@@H](C)C(=O)N[C@@H](C)C(=O)N1)C(=O)N[C@@H](C)C(=O)N[C@@H](Cc1c[nH]c2ccccc12)C(=O)N[C@@H](CC(C)C)C(=O)N[C@@H](CCSC)C(=O)N[C@@H](CC(N)=O)C(=O)N[C@H](C(N)=O)[C@@H](C)O` (H-HSQGTFTSDYSKYLDEQAAKEFIAWLMNT-NH2; lactam 16-20), for which the results for the EC50 (in test [1]; at Glucagon receptor [2]; in test [3]) were 0.02 nM, 0.03 nM and 6.26 nM, respectively. The results for the Activity (in test [4]; at Glucagon receptor [5]; in test [6]) were 126%, 104% and 0%, respectively.

Take `CC[C@H](C)[C@H](NC(=O)[C@H](Cc1ccccc1)NC(=O)[C@H](CCC(=O)O)NC(=O)[C@@H]1CCCCNC(=O)CC[C@H](NC(=O)[C@H](CC(=O)O)NC(=O)[C@H](CC(C)C)NC(=O)[C@H](Cc2ccc(O)cc2)NC(=O)[C@H](CCCCN)NC(=O)[C@H](CO)NC(=O)[C@H](Cc2ccc(O)cc2)NC(=O)[C@H](CC(=O)O)NC(=O)[C@H](CO)NC(=O)[C@@H](NC(=O)[C@H](Cc2ccccc2)NC(=O)[C@@H](NC(=O)CNC(=O)[C@H](CCC(N)=O)NC(=O)[C@H](CO)NC(=O)[C@@H](N)Cc2cnc[nH]2)[C@@H](C)O)[C@@H](C)O)C(=O)N[C@@H]([C@@H](C)CC)C(=O)N[C@@H](Cc2cnc[nH]2)C(=O)N[C@@H](CCC(N)=O)C(=O)N1)C(=O)N[C@@H](C)C(=O)N[C@@H](Cc1c[nH]c2ccccc12)C(=O)N[C@@H](CC(C)C)C(=O)N[C@@H](CCSC)C(=O)N[C@@H](CC(N)=O)C(=O)N[C@H](C(N)=O)[C@@H](C)O`: the results for the EC50 (in test [1]; on Glucagon receptor [2]; in test [3]) were 0.14 nM, 0.15 nM and 5.53 nM, respectively. Moreover, the values for the Activity (in test [4]; on Glucagon receptor [5]; in test [6]) were 20%, 21% and 0%, respectively.

Regarding `CCCCCCCCCCCCCCCC(=O)N[C@@H](CCC(=O)NCCCC[C@H](NC(=O)[C@H](CC(=O)O)NC(=O)[C@H](CO)NC(=O)[C@@H](NC(=O)[C@H](Cc1ccccc1)NC(=O)[C@@H](NC(=O)CNC(=O)[C@H](CCC(N)=O)NC(=O)C(C)(C)NC(=O)[C@@H](N)Cc1cnc[nH]1)[C@@H](C)O)[C@@H](C)O)C(=O)N[C@@H](CO)C(=O)N[C@@H](CCCCN)C(=O)N[C@@H](Cc1ccc(O)cc1)C(=O)N[C@@H](CC(C)C)C(=O)N[C@@H](CC(=O)O)C(=O)NC(C)(C)C(=O)N[C@@H](CCCNC(=N)N)C(=O)N[C@@H](C)C(=O)N[C@@H](C)C(=O)N[C@@H](CCC(N)=O)C(=O)N[C@@H](CC(=O)O)C(=O)N[C@@H](Cc1ccccc1)C(=O)N[C@H](C(=O)N[C@@H](CCC(N)=O)C(=O)N[C@@H](Cc1c[nH]c2ccccc12)C(=O)N[C@@H](CC(C)C)C(=O)N[C@@H](CCSC)C(=O)N[C@@H](CC(=O)O)C(=O)N[C@H](C(N)=O)[C@@H](C)O)C(C)C)C(=O)O`, the EC50 in test [1] amounted to 0.015 nM; on Glucagon receptor [2] it was 0.028 nM; in test [3], 2.19 nM. Also, the Activity in test [4] was 187%; on Glucagon receptor [5], 114%; in test [6] it was 1%.

As to `CCCCCCCCCCCCCCCC(=O)N[C@@H](CCC(=O)NCCCC[C@H](NC(=O)[C@H](CC(=O)O)NC(=O)[C@H](CO)NC(=O)[C@@H](NC(=O)[C@H](Cc1ccccc1)NC(=O)[C@@H](NC(=O)CNC(=O)[C@H](CCC(N)=O)NC(=O)C(C)(C)NC(=O)[C@@H](N)Cc1cnc[nH]1)[C@@H](C)O)[C@@H](C)O)C(=O)N[C@@H](CO)C(=O)N[C@@H](CCCCN)C(=O)N[C@@H](Cc1ccc(O)cc1)C(=O)N[C@@H](CC(C)C)C(=O)N[C@@H](CC(=O)O)C(=O)N[C@@H](CCC(=O)O)C(=O)N[C@@H](CCC(N)=O)C(=O)N[C@@H](C)C(=O)N[C@@H](C)C(=O)N[C@@H](CCCCN)C(=O)N[C@@H](CCC(=O)O)C(=O)N[C@@H](Cc1ccccc1)C(=O)N[C@H](C(=O)N[C@@H](C)C(=O)N[C@@H](Cc1c[nH]c2ccccc12)C(=O)N[C@@H](CC(C)C)C(=O)N[C@@H](CC(C)C)C(=O)N[C@@H](CC(=O)O)C(=O)N[C@H](C(N)=O)[C@@H](C)O)[C@@H](C)CC)C(=O)O`, the EC50 in test [1] was 0.003 nM; on Glucagon receptor [2], 0.003 nM; in test [3], 3.54 nM. For the same molecule, the Activity in test [4] stood at 933%; on Glucagon receptor [5] it was 1070%; in test [6], 1%.

As for `CCCCCCCCCCCCCCCC(=O)N[C@@H](CCC(=O)NCCCC[C@H](NC(=O)[C@H](CC(=O)O)NC(=O)[C@H](CO)NC(=O)[C@@H](NC(=O)[C@H](Cc1ccccc1)NC(=O)[C@@H](NC(=O)CNC(=O)[C@H](CCC(N)=O)NC(=O)C(C)(C)NC(=O)[C@@H](N)Cc1cnc[nH]1)[C@@H](C)O)[C@@H](C)O)C(=O)N[C@@H](CO)C(=O)N[C@@H](CCCCN)C(=O)N[C@@H](Cc1ccc(O)cc1)C(=O)N[C@@H](CC(C)C)C(=O)N[C@@H](CC(=O)O)C(=O)N[C@@H](CCC(=O)O)C(=O)N[C@@H](CCCNC(=N)N)C(=O)N[C@@H](C)C(=O)N[C@@H](C)C(=O)N[C@@H](CCC(N)=O)C(=O)N[C@@H](CC(=O)O)C(=O)N[C@@H](Cc1ccccc1)C(=O)N[C@H](C(=O)N[C@@H](CCC(N)=O)C(=O)N[C@@H](Cc1c[nH]c2ccccc12)C(=O)N[C@@H](CC(C)C)C(=O)N[C@@H](CC(C)C)C(=O)N[C@@H](CC(=O)O)C(=O)N[C@H](C(N)=O)[C@@H](C)O)C(C)C)C(=O)O`, the EC50 in test [1] amounted to 0.068 nM; on Glucagon receptor [2] it was 0.005 nM; in test [3], 2.03 nM. Besides, the Activity in test [4] came to 41%; on Glucagon receptor [5], 640%; in test [6] it was 1%.
